Laboratory results published in PubChem BioAssay (NCI).
Values joined by “and” are separate entries in the source; they are usually repeats but may differ in a detail not shown here. Equal entries are not always repeated.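 Following 48 hours of exposure in 96-well plates, responses at five concentrations were used to interpolate endpoints linearly. Abbreviation: GI50, concentration required for 50% inhibition of growth. TGI marks complete inhibition of growth.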

Key:
Test in all cases: growth of human tumour cells (NCI), 48 h
MDA-MB-231 breast = system: MDA-MB-231 breast
A498 renal = system: A498 renal
SK-MEL-2 melanoma = system: SK-MEL-2 melanoma
NCI-H460 lung = system: NCI-H460 lung
UACC-62 melanoma = system: UACC-62 melanoma
HT29 colon = system: HT29 colon
SNB-75 CNS = system: SNB-75 CNS
786-0 renal = system: 786-0 renal
HCT-116 colon = system: HCT-116 colon
HCC-2998 colon = system: HCC-2998 colon
HL-60(TB) leukemia = system: HL-60(TB) leukemia
SK-OV-3 ovarian = system: SK-OV-3 ovarian
DU-145 prostate = system: DU-145 prostate
NCI-H23 lung = system: NCI-H23 lung
OVCAR-8 ovarian = system: OVCAR-8 ovarian
COLO 205 colon = system: COLO 205 colon
HCT-15 colon = system: HCT-15 colon
TK-10 renal = system: TK-10 renal
SW-620 colon = system: SW-620 colon
IGROV1 ovarian = system: IGROV1 ovarian
CAKI-1 renal = system: CAKI-1 renal
MDA-MB-435 = system: MDA-MB-435
K-562 leukemia = system: K-562 leukemia
BT-549 breast = system: BT-549 breast
NCI-H522 lung = system: NCI-H522 lung
SK-MEL-5 melanoma = system: SK-MEL-5 melanoma
NCI-H226 lung = system: NCI-H226 lung
HOP-92 NSCLC = system: HOP-92 NSCLC
HOP-62 NSCLC = system: HOP-62 NSCLC
M14 melanoma = system: M14 melanoma
SN12C renal = system: SN12C renal
SK-MEL-28 melanoma = system: SK-MEL-28 melanoma
SF-539 CNS = system: SF-539 CNS
ACHN renal = system: ACHN renal
T-47D breast = system: T-47D breast
UACC-257 melanoma = system: UACC-257 melanoma
MOLT-4 leukemia = system: MOLT-4 leukemia
UO-31 renal = system: UO-31 renal
OVCAR-3 ovarian = system: OVCAR-3 ovarian
KM12 colon = system: KM12 colon
SR leukemia = system: SR leukemia
OVCAR-5 ovarian = system: OVCAR-5 ovarian
HS 578T breast = system: HS 578T breast
OVCAR-4 ovarian = system: OVCAR-4 ovarian
RPMI-8226 leukemia = system: RPMI-8226 leukemia
NCI/ADR-RES ovarian = system: NCI/ADR-RES ovarian
SF-295 CNS = system: SF-295 CNS
U251 CNS = system: U251 CNS
MCF7 breast = system: MCF7 breast
A549 NSCLC = system: A549 NSCLC
RXF 393 renal = system: RXF 393 renal
EKVX NSCLC = system: EKVX NSCLC
SF-268 CNS = system: SF-268 CNS
PC-3 prostate = system: PC-3 prostate
SNB-19 CNS = system: SNB-19 CNS
LOX IMVI melanoma = system: LOX IMVI melanoma
MALME-3M melanoma = system: MALME-3M melanoma
CCRF-CEM leukemia = system: CCRF-CEM leukemia

## C[C@H](NC(=O)c1c(N)nn2cccnc12)c1cc2cccc(C#Cc3cnn(C)c3)c2c(=O)n1-c1ccccc1
MDA-MB-231 breast
  GI50: 5.98 µM and 12.3 µM
  TGI: > 10 µM and 54.1 µM
A498 renal
  GI50: 1.17 µM and 0.241 µM
  TGI: 8.24 µM and 1.79 µM
SK-MEL-2 melanoma
  GI50: > 10 µM and 6.61 µM
  TGI: > 10 µM and 41.1 µM
NCI-H460 lung
  GI50: 3.8 µM and 5.2 µM
  TGI: > 10 µM and 23.9 µM
UACC-62 melanoma
  GI50: 0.682 µM and 1.38 µM
  TGI: > 10 µM and 23.2 µM
HT29 colon
  GI50: 2.31 µM and 4 µM
  TGI: > 10 µM and 43.3 µM
SNB-75 CNS
  GI50: 0.679 µM and 0.531 µM
  TGI: > 10 µM and 10.5 µM
786-0 renal
  GI50: 3.97 µM and 3.56 µM
  TGI: > 10 µM and 16.9 µM
HCT-116 colon
  GI50: 2.61 µM and 6.65 µM
  TGI: > 10 µM and 33.9 µM
HCC-2998 colon
  GI50: > 10 µM and 4.94 µM
  TGI: > 10 µM and 19.9 µM
HL-60(TB) leukemia
  GI50: 0.774 µM and 0.813 µM
  TGI: > 10 µM and 9.86 µM
SK-OV-3 ovarian
  GI50: 2.89 µM and 2.13 µM
  TGI: > 10 µM and 15.5 µM
DU-145 prostate
  GI50: 8.71 µM and 7.69 µM
  TGI: > 100 µM
NCI-H23 lung
  GI50: 4.99 µM and 11 µM
  TGI: > 10 µM and 24.7 µM
OVCAR-8 ovarian
  GI50: > 10 µM and 12.6 µM
  TGI: > 100 µM
COLO 205 colon
  GI50: 4.41 µM and 1.8 µM
  TGI: > 10 µM and 5.23 µM
HCT-15 colon
  GI50: 2.69 µM and 4.68 µM
  TGI: > 10 µM and 26.4 µM
TK-10 renal
  GI50: 2.07 µM and 1.38 µM
  TGI: > 10 µM and 12.1 µM
SW-620 colon
  GI50: 3.14 µM and 11.9 µM
  TGI: > 10 µM and 61 µM
IGROV1 ovarian
  GI50: 0.439 µM and 0.722 µM
  TGI: 2.89 µM and 5.47 µM
CAKI-1 renal
  GI50: 3.81 µM
  TGI: > 10 µM
MDA-MB-435
  GI50: 5.87 µM and 5.57 µM
  TGI: > 10 µM and 60.8 µM
K-562 leukemia
  GI50: > 10 µM and 10.4 µM
  TGI: > 100 µM
BT-549 breast
  GI50: 1.6 µM and 1.42 µM
  TGI: > 10 µM and 15.2 µM
NCI-H522 lung
  GI50: 5.27 µM and 10.5 µM
  TGI: > 10 µM and 54.8 µM
SK-MEL-5 melanoma
  GI50: 4.54 µM and 12.3 µM
  TGI: > 10 µM and 29.1 µM
NCI-H226 lung
  GI50: > 10 µM and 11.8 µM
  TGI: > 10 µM and 32.8 µM
HOP-92 NSCLC
  GI50: 0.524 µM and 1.41 µM
  TGI: 7.35 µM and 20.4 µM
HOP-62 NSCLC
  GI50: 8.58 µM
  TGI: > 10 µM
M14 melanoma
  GI50: > 10 µM and 11.8 µM
  TGI: > 10 µM and 30.9 µM
SN12C renal
  GI50: 4.09 µM and 6.47 µM
  TGI: > 10 µM and 43.4 µM
SK-MEL-28 melanoma
  GI50: 3.08 µM and 3.9 µM
  TGI: > 10 µM and 38.6 µM
SF-539 CNS
  GI50: 3.33 µM and 3.36 µM
  TGI: > 10 µM and 16.4 µM
ACHN renal
  GI50: 3.39 µM and 2.92 µM
  TGI: > 10 µM and 18.8 µM
T-47D breast
  GI50: 0.211 µM and 0.224 µM
  TGI: 1.91 µM and 3.88 µM
UACC-257 melanoma
  GI50: > 10 µM and 9.9 µM
  TGI: > 10 µM and 39.2 µM
MOLT-4 leukemia
  GI50: 2.17 µM and 1.96 µM
  TGI: > 10 µM and 6.55 µM
UO-31 renal
  GI50: 0.666 µM and 0.981 µM
  TGI: > 10 µM and 13.8 µM
OVCAR-3 ovarian
  GI50: 4.27 µM and 4.6 µM
  TGI: > 10 µM and 27.1 µM
KM12 colon
  GI50: 5.98 µM and 9.53 µM
  TGI: > 10 µM and 61.4 µM
SR leukemia
  GI50: 3.59 µM and 2.4 µM
  TGI: > 100 µM
OVCAR-5 ovarian
  GI50: 8.65 µM and 6.17 µM
  TGI: > 10 µM and 28.7 µM
HS 578T breast
  GI50: 1.83 µM and 1.26 µM
  TGI: > 10 µM and 46.3 µM
OVCAR-4 ovarian
  GI50: 8.72 µM and 13.3 µM
  TGI: > 10 µM and 68.4 µM
RPMI-8226 leukemia
  GI50: 3.23 µM and 3.84 µM
  TGI: > 10 µM and 31.4 µM
NCI/ADR-RES ovarian
  GI50: 6.28 µM and 4.55 µM
  TGI: > 10 µM and 56 µM
SF-295 CNS
  GI50: 2.52 µM and 2.47 µM
  TGI: > 10 µM and 15.6 µM
U251 CNS
  GI50: 7.5 µM and 8.22 µM
  TGI: > 10 µM and 48.5 µM
MCF7 breast
  GI50: 1.1 µM and 1.01 µM
  TGI: > 10 µM and 87.7 µM
A549 NSCLC
  GI50: 8.92 µM and 4.98 µM
  TGI: > 10 µM and 30.2 µM
RXF 393 renal
  GI50: 2.02 µM and 1.58 µM
  TGI: > 10 µM and 9.57 µM
EKVX NSCLC
  GI50: 9.84 µM and 4.67 µM
  TGI: > 100 µM
SF-268 CNS
  GI50: > 10 µM and 10.1 µM
  TGI: > 10 µM and 72.2 µM
PC-3 prostate
  GI50: 1.6 µM and 1.98 µM
  TGI: > 100 µM
SNB-19 CNS
  GI50: 6.27 µM and 10.4 µM
  TGI: > 100 µM
LOX IMVI melanoma
  GI50: 3.44 µM
  TGI: > 10 µM and 40 µM
MALME-3M melanoma
  TGI: > 10 µM and 20 µM
CCRF-CEM leukemia
  GI50: 0.588 µM and 0.357 µM
  TGI: > 100 µM
